Results reported in patent US20260200947A1, “FUSED CYCLIC COMPOUNDS AND USE THEREOF” (Jacobio Pharmaceuticals Co., Ltd., priority 2022, published 2026).
Read-outs that look alike come from different tables or passages of the source.

Tests used:
[1] = Mouse pharmacokinetic study; format: in vivo; conditions: Balb/c mouse (female)
Method: The purpose of this study was to evaluate the pharmacokinetic properties of compounds in Balb/c mouse (female) following single dose administration. Six mice were needed for each compound and the six mice were divided into two groups (n=3/group), group A and group B. Mice in group A were treated with a single 3 mg/kg dose of compound (iv). Mice in group B were treated with a single 10 mg/kg dose of compound (po). Foreach mouse in group A, blood samples were collected at the time point of 0.083 h 0.5 h, 1 h, 2 h, 4 h, 8 h and 24 h post-dose. For each mouse in group B, blood samples were collected at the time point of 0.25 h, 0.5 h, 1 h, 2 h, 4 h, 8 h and 24 h post-dose. Blood samples were placed on ice until centrifugation to obtain plasma samples. The plasma samples were stored at −80° C. until analysis. The concentration of compound in plasma samples was determined using a LC-MS/MS method.

[2] = test system: Capan-2 cells (K-Ras G12V)
Method: (§1) Each of cells in culture medium was seeded in 96-well plates at density indicated in Table 4 and put in a cell incubator to incubate overnight. The next day, the culture medium was removed and the compound diluted in assay medium was added in each well. […] 10 μL of cell lysates from the 96-well plates were transferred to a 384-well plate (Greiner) containing 2.5 μL/well HTRF® pre-mixed antibodies (Cisbio 64AERPEH). The plate was incubated 4 hours at 25° C. and read HTRF signals on Tecan Spark multimode microplate reader. The data were analyzed using a 4-parameter logistic model to calculate IC50 values.

[3] = test system: AsPC-1 cells (K-Ras G12D)
Method: (§2) Each of cells in culture medium was plated in TC-treated 96-well plates at a density indicated in Table 4 and incubated in a cell incubator overnight. The next day, each of compounds was diluted in culture medium and added to the plates. After 6 days incubation in cell incubator, the cell viability was detected by CellTiter-Glo® Cell Viability Assay kit (Promega).

[4] = test system: SW620 cells (K-Ras G12V)
Method: as §2

[5] = target: T1, GppNp-KRAS G12D (Homo sapiens, UniProt P01116, G12D); test: GTP-K-Ras and cRAF interaction assay, GppNp-KRAS G12D; conditions: read-out: Biochemical assays, IC50, KRAS G12D GppNp; GppNp-loaded K-Ras G12D, cRAF RBD interaction, HTRF
T1 sequence (P01116 1-169 isoform P01116-2 G12D): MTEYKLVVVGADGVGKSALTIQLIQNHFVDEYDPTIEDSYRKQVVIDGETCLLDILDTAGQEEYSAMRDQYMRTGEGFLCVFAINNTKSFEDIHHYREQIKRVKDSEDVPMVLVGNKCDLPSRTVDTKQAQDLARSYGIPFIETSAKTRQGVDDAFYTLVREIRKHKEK

[6] = target: T2, GppNp-KRAS G12V (Homo sapiens, UniProt P01116, G12V); test: GTP-K-Ras and cRAF interaction assay, GppNp-KRAS G12V; conditions: read-out: Biochemical assays, IC50, KRAS G12V GppNp; GppNp-loaded K-Ras G12V, cRAF RBD interaction, HTRF
T2 sequence (P01116 1-169 isoform P01116-2 G12V): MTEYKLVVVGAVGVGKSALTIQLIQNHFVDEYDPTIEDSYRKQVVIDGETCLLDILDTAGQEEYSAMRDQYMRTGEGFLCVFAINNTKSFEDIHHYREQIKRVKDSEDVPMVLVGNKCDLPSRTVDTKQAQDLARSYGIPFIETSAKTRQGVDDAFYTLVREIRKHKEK

[7] = target: T3, GDP-KRAS G12D (Homo sapiens, UniProt P01116, G12D); test: SOS1 catalyzed nucleotide exchange assay, GDP-KRAS G12D; conditions: read-out: Biochemical assays, IC50, KRAS G12D GDP, GDP form K-Ras G12D, TR-FRET
T3 sequence (P01116 1-169 isoform P01116-2 G12D): as the sequence (P01116 1-169 isoform P01116-2 G12D) above

[8] = target: T4, GDP-KRAS G12V (Homo sapiens, UniProt P01116, G12V); test: SOS1 catalyzed nucleotide exchange assay, GDP-KRAS G12V; conditions: read-out: Biochemical assays, IC50, KRAS G12V GDP, GDP form K-Ras G12V, TR-FRET
T4 sequence (P01116 1-169 isoform P01116-2 G12V): as the sequence (P01116 1-169 isoform P01116-2 G12V) above

[9] = test system: AGS cells (K-Ras G12D)
Method: as §2

[10] = test system: SW620 cells (K-Ras G12V); test: Phospho-ERK1/2(THR202/TYR204) HTRF assay, SW620; format: cell-based; conditions: Homo sapiens, SW-620, 2 hours incubation, read-out: pERK, IC50, SW620
Method: as §1

[11] = test system: AGS cells (K-Ras G12D); remark: listed apart in the source
Method: as §1

[12] = target: T3, GDP-KRAS G12D; test: biochemical
[13] = target: T4, GDP-KRAS G12V; test: biochemical
[14] = target: T1, GppNp-KRAS G12D; test: biochemical
[15] = target: T2, GppNp-KRAS G12V; test: biochemical

SMILES	AUC0-24 h ([1]; 3 mg/kg, iv, plasma) [ng·h/mL]	Cl_obs ([1]; 3 mg/kg, iv, plasma) [mL/min/kg]	F ([1]; 10 mg/kg po vs 3 mg/kg iv) [%]	AUC0-24 h ([1]; 10 mg/kg, po, plasma) [ng·h/mL]	Cmax ([1]; 10 mg/kg, po, plasma) [ng/mL]	IC50 [2] [nM]	IC50 [3] [nM]	IC50 [4] [nM]	IC50 [5] [nM]	IC50 [6] [nM]	IC50 [7] [nM]	IC50 [8] [nM]	IC50 [9] [nM]	IC50 [10] [nM]	IC50 [11] [nM]	IC50 [12] [nM]	IC50 [13] [nM]	IC50 [14] [nM]	IC50 [15] [nM]
N#Cc1c(N)sc2c(F)ccc(-c3c(Cl)c4c5c(nc(OCC67CCCN6CC(F)C7)nc5c3F)N3CCCOCC3CO4)c12 (single isomer, unassigned) [Compound 66B]	8951	5.77	10.8	3217	1175	1.94	5.91	2.22	4.06	8.62	0.983	0.924							
CSc1cccc2cc(O)cc(-c3nc4c5c(nc(OC[C@@]67CCCN6C[C@H](F)C7)nc5c3F)N3CCCOC[C@H]3N4C)c12 [Compound 20]						10.3	110	24.4					22.1						
[2H]C([2H])([2H])N1c2nc(-c3cc(N)cc4ccc(F)c(C#C)c34)c(F)c3nc(OC[C@@]45CCCN4C[C@H](F)C5)nc(c23)N2CCCOC[C@H]21 [Compound 48]						1.65	26.6	2.55					3.44	3.68	3.53	0.759	0.595	35.8	55.4
C#Cc1c(F)ccc2cc(N)cc(-c3nc4c5c(nc(OC[C@@]67CCCN6C[C@H](F)C7)nc5c3F)N3CCCOCC3N4CCC(F)(F)F)c12 (some centres unmarked) [Compound 104]															485	9.19	17.6	> 1000	> 1000
C#Cc1c(F)ccc2cc(N)cc(-c3nc4c5c(nc(OC[C@@]67CCCN6C[C@H](F)C7)nc5c3F)N3CCC=C[C@H](F)[C@H]3N4C)c12 [Compound 108A]						8.81	62.7	15.8	106	214	3.32	2.95							
C#Cc1c(F)ccc2cc(N)cc(-c3nc4c5c(nc(OC[C@@]67CCCN6C[C@H](F)C7)nc5c3F)N3CCCOCC3N4)c12 (some centres unmarked) [Compound 113]							587	45.4					35.1	21.4	33.6	4.62	3.81	623	513
C#Cc1c(F)ccc2cc(N)cc(-c3nc4c5c(nc(OC[C@@]67CCCN6C[C@H](F)C7)nc5c3F)N3[C@H]5COC[C@H]5COC[C@H]3N4C)c12 [Compound 123D]						2.07									2.18				
C#Cc1c(F)ccc2cc(N)cc(-c3nc4c5c(nc(OCC67CC(=C)CN6CC(OC)C7)nc5c3F)N3CCCOCC3N4C)c12 (centres unmarked) [Compound 169]						0.778	93.6	15.2	164	245	1.67	3.33							
